Twelve compounds from ChEMBL document CHEMBL4130478, “Improved proteolytic stability and potent activity against Leishmania infantum trypanothione reductase of α/β-peptide foldamers conjugated to cell-penetrating peptides” (Eur J Med Chem, 2017) can be followed below.

Active and inactive are the calls of the source. Numbered stars: 1 amine (or outer) side, 2 acyl side, 3 side chain; on linkers, the order of the positions; unused ones are H or OH. Bridge positions count the residues as written; N and C are the ends. Square brackets hold non-standard residues; d marks the D form. Peptide text beside a SMILES is read from it. I, II: the chains in the order shown. X2 = NCCCC[C@H](N[*:2])C(=O)C1CCCCN([C@@H](CCC(=O)O)C(=O)[*:1])C(=O)C1; X1 = O=C(CC[C@@H]1CCCN1[*:1])[*:2]; β3hI = CC[C@H](C)[C@H](N)CC(=O)O; β3hQ = NC(=O)CC[C@H](N)CC(=O)O; β3hK = NCCCC[C@H](N)CC(=O)O; β3hS = N[C@@H](CO)CC(=O)O; Nle = CCCC[C@H](N)C(=O)O; β3hA = C[C@H](N)CC(=O)O

One data set deals with Proteinase K (Engyodontium album, UniProt P06873). Description: Stability assessed as Tritirachium album proteinase K-mediated compound degradation by measuring half life at 50 uM by HPLC method. In kind it is ADME. The following applies: parengyodontium album.
In data set [1] the target is T1, Trypanothione reductase (Leishmania infantum, UniProt A4HSF7). Description: Inhibition of oxidoreductase activity of recombinant Leishmania infantum trypanothione reductase pre-incubated for 10 mins before T[S]2 and NADPH addition.
Data set [2] addresses T1, Trypanothione reductase. Description: Inhibition of dimerization of HIS/FLAG tagged Leishmania infantum trypanothione reductase incubated for 16 hrs in presence of dimerization buffer by ELISA. For orientation: ELISA stands for enzyme-linked immunosorbent assay.
In data set [3] the test system is Leishmania infantum. Description: Leishmanicidal activity against Leishmania infantum MCAN/ES/89/IPZ229/1/89 promastigotes at 25 uM after 24 hrs by propidium iodide staining based flow cytometry. In kind it is functional, organism-based. On the technique in general: A flow cytometer gives signals particle by particle.
The subject of data set [4] is Leishmania infantum. Nature of the data set: Leishmanicidal activity against Leishmania infantum amastigotes at 25 uM after 24 hrs by propidium iodide staining based flow cytometry. In kind it is functional, organism-based.
Data set [5] relates to Leishmania infantum. Description: Leishmanicidal activity against Leishmania infantum MCAN/ES/89/IPZ229/1/89 promastigotes after 24 hrs by propidium iodide staining based flow cytometry. In kind it is functional. As to conditions: MCAN/ES/89/IPZ229/1/89, 24 h.
Data set [6] has as its system Leishmania infantum. Description: Leishmanicidal activity against Leishmania infantum amastigotes after 24 hrs by propidium iodide staining based flow cytometry. In kind it is functional.
A short description of data set [7]: Cytotoxicity against human THP1 cells after 24 hrs by propidium iodide staining based flow cytometry. In kind it is cell-based. As to conditions: THP-1 cells, read-out: LC50.
Data set [8] is described as follows: Selectivity index, ratio of LC50 for cytotoxicity against human THP1 cells to LC50 for leishmanicidal activity against Leishmania infantum MCAN/ES/89/IPZ229/1/89 promastigotes. In kind it is toxicity, cell-based. As to conditions: THP-1 cells, read-out: RatioLC50.
Data set [9] is described as follows: Selectivity index, ratio of LC50 for cytotoxicity against human THP1 cells to LC50 for leishmanicidal activity against Leishmania infantum amastigotes. In kind it is toxicity, cell-based. The following applies: THP-1 cells, read-out: RatioLC50.

Sequence of Proteinase K (P06873 whole entry): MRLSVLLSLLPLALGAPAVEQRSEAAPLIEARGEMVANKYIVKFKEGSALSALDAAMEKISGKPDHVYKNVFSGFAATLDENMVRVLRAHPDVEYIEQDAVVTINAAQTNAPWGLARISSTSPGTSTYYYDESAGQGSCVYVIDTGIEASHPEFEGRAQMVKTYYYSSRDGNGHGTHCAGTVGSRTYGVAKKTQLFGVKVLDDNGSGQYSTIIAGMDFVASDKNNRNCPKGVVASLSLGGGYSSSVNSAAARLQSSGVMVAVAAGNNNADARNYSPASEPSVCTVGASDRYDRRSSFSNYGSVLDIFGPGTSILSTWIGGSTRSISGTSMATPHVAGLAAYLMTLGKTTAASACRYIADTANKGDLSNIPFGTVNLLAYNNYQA
T1 sequence (A4HSF7 whole entry): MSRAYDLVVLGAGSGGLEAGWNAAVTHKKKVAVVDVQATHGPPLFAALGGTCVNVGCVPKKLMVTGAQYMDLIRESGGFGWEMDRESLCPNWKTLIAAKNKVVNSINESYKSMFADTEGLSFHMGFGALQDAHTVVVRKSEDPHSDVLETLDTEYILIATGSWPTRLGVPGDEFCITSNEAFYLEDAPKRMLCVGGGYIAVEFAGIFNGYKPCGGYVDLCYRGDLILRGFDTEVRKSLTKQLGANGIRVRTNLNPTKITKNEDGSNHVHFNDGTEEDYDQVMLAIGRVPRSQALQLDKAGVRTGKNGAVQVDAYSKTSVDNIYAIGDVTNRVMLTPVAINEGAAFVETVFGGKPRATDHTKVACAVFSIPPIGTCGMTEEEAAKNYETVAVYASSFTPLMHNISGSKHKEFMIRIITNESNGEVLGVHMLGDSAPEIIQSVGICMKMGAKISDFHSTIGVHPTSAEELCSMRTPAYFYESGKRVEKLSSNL

Consider `CCCC[C@H](NC(=O)C[C@H](CCCCN)NC(=O)[C@H](CCCC)NC(=O)C[C@H](CO)NC(=O)C[C@@H](NC(=O)CNC(=O)[C@@H](NC(=O)C[C@H](CO)NC(=O)C[C@H](CCC(N)=O)NC(=O)[C@@H](NC(=O)[C@@H](NC(=O)C[C@H](CCCCN)NC(=O)C[C@@H]1CCCN1C(C)=O)[C@@H](C)CC)[C@@H](C)CC)C(C)C)[C@@H](C)CC)C(N)=O`, for which the half-life – broadly, the time needed for the level to fall by half in the phase considered – at 50 µM at Proteinase K is 5.28 h. Further, the figures for the IC50 at Trypanothione reductase [1] and at Trypanothione reductase [2] were 9.28 µM and 15.5 µM, respectively. In addition, the result with Leishmania infantum [3] and in the data set with Leishmania infantum [4] was inactive.
As for `CCCC[C@@H](CC(N)=O)NC(=O)[C@H](CCCCN)NC(=O)[C@H](CCCC)NC(=O)C[C@H](CO)NC(=O)[C@@H](NC(=O)CNC(=O)[C@@H](NC(=O)C[C@H](CO)NC(=O)[C@H](CCC(N)=O)NC(=O)[C@@H](NC(=O)C[C@H](NC(=O)[C@H](CCCCN)NC(=O)C[C@@H]1CCCN1C(C)=O)[C@@H](C)CC)[C@@H](C)CC)C(C)C)[C@@H](C)CC`, the half-life at 50 µM at Proteinase K was found to be 8.62 h. Besides, the concentration for half-maximal inhibition (IC50) (usually the concentration needed to halve the response being measured) at Trypanothione reductase [1] amounted to 3.47 µM; on Trypanothione reductase [2], 21.7 µM. Also, the outcome with Leishmania infantum [3] and in the data set with Leishmania infantum [4] was inactive.
For `CCCC[C@H](NC(=O)[C@H](CCCCN)NC(=O)[C@H](CC(C)C)NC(=O)C[C@H](CO)NC(=O)[C@@H](NC(=O)CNC(=O)[C@@H](NC(=O)C[C@H](CO)NC(=O)[C@H](CCC(N)=O)NC(=O)[C@@H](NC(=O)C[C@@H](NC(=O)[C@H](CCCCN)NC(=O)[C@@H]1CCCN1C(=O)[C@H](CCCNC(=N)N)NC(=O)[C@H](CCCNC(=N)N)NC(=O)[C@H](CCCNC(=N)N)NC(=O)[C@H](CCCNC(=N)N)NC(=O)[C@H](CCCNC(=N)N)NC(=O)[C@H](CCCNC(=N)N)NC(=O)[C@H](CCCNC(=N)N)NC(=O)[C@H](CCCNC(=N)N)NC(=O)[C@@H](N)CCCNC(=N)N)[C@@H](C)CC)[C@@H](C)CC)C(C)C)[C@@H](C)CC)C(N)=O` (H-RRRRRRRRRPK[β3hI]IQ[β3hS]VGI[β3hS]LK[Nle]-NH2), the LC50 (usually the concentration lethal to half of the exposed cells or organisms) was determined as 0.98 µM in the data set with Leishmania infantum [5] and 1.9 µM in the data set on Leishmania infantum [6]. Besides, the CC50 at 24 h in data set [7] was 5.8 µM. The selectivity ratio was 5.9 in data set [8] and 3.1 in data set [9].
The matching figures for `CCCCCCCCCCCCCCCCCCOC[C@H](COP(=O)([O-])OCC[N+](C)(C)C)OC` [(R)-EDELFOSINE]: 9 µM, 0.6 µM, 1 µM, below 1 and 1.7.
`CCCCCCCCCCCCCCCCOP(=O)([O-])OCC[N+](C)(C)C` [MILTEFOSINE] yielded a median lethal concentration (LC50) in the data set with Leishmania infantum [6] of 2 µM. For the same compound, the selectivity ratio was below 1 in [8] and 9.5 in data set [9].
As to `CCCC[C@@H](CC(N)=O)NC(=O)[C@H](CCCCN)NC(=O)[C@H](CCCC)NC(=O)C[C@H](CO)NC(=O)C[C@H](NC(=O)CNC(=O)[C@@H](NC(=O)C[C@H](CO)NC(=O)[C@H](CCC(N)=O)NC(=O)[C@@H](NC(=O)[C@@H](NC(=O)C[C@H](CCCCN)NC(=O)C[C@@H]1CCCN1C(C)=O)[C@@H](C)CC)[C@@H](C)CC)C(C)C)[C@@H](C)CC`, the half-life at 50 µM at Proteinase K worked out at 2.18 h. The IC50 at Trypanothione reductase [1] came out at 2.08 µM; at Trypanothione reductase [2], 18 µM. Also, the result in the data set with Leishmania infantum [3] and in the data set on Leishmania infantum [4] was inactive.
Take `CCCC[C@H](NC(=O)[C@H](CCCCN)NC(=O)[C@H](CCCC)NC(=O)[C@H](CO)NC(=O)[C@@H](NC(=O)CNC(=O)[C@H](CCCCN)NC(=O)[C@H](CO)NC(=O)[C@H](CCC(N)=O)NC(=O)[C@@H](NC(=O)[C@H](CCC(=O)O)N1CCCCC(C(=O)[C@H](CCCCN)NC(=O)[C@@H]2CCCN2C(=O)[C@H](CCCNC(=N)N)NC(=O)[C@H](CCCNC(=N)N)NC(=O)[C@H](CCCNC(=N)N)NC(=O)[C@H](CCCNC(=N)N)NC(=O)[C@H](CCCNC(=N)N)NC(=O)[C@H](CCCNC(=N)N)NC(=O)[C@H](CCCNC(=N)N)NC(=O)[C@H](CCCNC(=N)N)NC(=O)[C@@H](N)CCCNC(=N)N)CC1=O)[C@@H](C)CC)[C@@H](C)CC)C(=O)O` (stereo partly specified) (I: IQSKGIS[Nle]K[Nle]-OH / II: H-RRRRRRRRRP; linker I:N-II:C via X2): the LC50 is 3.5 µM in the data set on Leishmania infantum [5] and 2.8 µM with Leishmania infantum [6]. In addition, the CC50 at 24 h in data set [7] amounted to 2.5 µM. In addition, the selectivity ratio in [8] and in [9] was below 1 each time.
Regarding `CC[C@H](C)[C@H](NC(=O)CNC(=O)[C@@H](NC(=O)[C@H](CO)NC(=O)[C@H](CCC(N)=O)NC(=O)[C@@H](NC(=O)[C@@H](NC(=O)[C@H](CCCCN)NC(=O)[C@@H]1CCCN1C(=O)[C@H](CCCNC(=N)N)NC(=O)[C@H](CCCNC(=N)N)NC(=O)[C@H](CCCNC(=N)N)NC(=O)[C@H](CCCNC(=N)N)NC(=O)[C@H](CCCNC(=N)N)NC(=O)[C@H](CCCNC(=N)N)NC(=O)[C@H](CCCNC(=N)N)NC(=O)[C@H](CCCNC(=N)N)NC(=O)[C@@H](N)CCCNC(=N)N)[C@@H](C)CC)[C@@H](C)CC)C(C)C)C(=O)N[C@@H](CO)C(=O)N[C@@H](CC(C)C)C(=O)N[C@@H](CCCCN)C(=O)N[C@@H](CC(C)C)C(=O)O` (H-RRRRRRRRRPKIIQSVGISLKL-OH), the 50% lethal concentration (LC50) in the data set with Leishmania infantum [5] amounted to 4.6 µM; in the data set on Leishmania infantum [6], 3.5 µM. Also, the CC50 at 24 h in data set [7] turned out to be 1.7 µM. Moreover, the selectivity ratio in [8] and in data set [9] was below 1 throughout.
On to `CCCC[C@@H](CC(=O)N[C@@H](CCCCN)C(=O)N[C@@H](CC(N)=O)C(N)=O)NC(=O)[C@H](CO)NC(=O)[C@@H](NC(=O)CNC(=O)C[C@@H](NC(=O)[C@H](CO)NC(=O)[C@H](CCC(N)=O)NC(=O)C(NC(=O)C[C@@H](NC(=O)[C@H](CCCCN)NC(=O)[C@@H]1CCCN1C(C)=O)[C@@H](C)CC)[C@@H](C)CC)C(C)C)[C@@H](C)CC` (single isomer, unassigned), for which the half-life at 50 µM at Proteinase K was below 0.25 h. Also, the concentration for half-maximal inhibition (IC50) came out at 18.2 µM at Trypanothione reductase [1] and 9.72 µM on Trypanothione reductase [2]. The result with Leishmania infantum [3] and with Leishmania infantum [4] was inactive.
Consider `N=C(N)NCCC[C@H](NC(=O)[C@H](CCCNC(=N)N)NC(=O)[C@H](CCCNC(=N)N)NC(=O)[C@H](CCCNC(=N)N)NC(=O)[C@H](CCCNC(=N)N)NC(=O)[C@H](CCCNC(=N)N)NC(=O)[C@H](CCCNC(=N)N)NC(=O)[C@H](CCCNC(=N)N)NC(=O)[C@@H](N)CCCNC(=N)N)C(N)=O`, for which the LC50 with Leishmania infantum [5] and with Leishmania infantum [6] was above 25 µM in each case. The CC50 at 24 h in data set [7] is above 25 µM.
In the case of `CC[C@H](C)[C@H](NC(=O)CNC(=O)[C@@H](NC(=O)C[C@H](CO)NC(=O)[C@H](CCC(N)=O)NC(=O)[C@@H](NC(=O)C[C@@H](NC(=O)[C@H](CCCCN)NC(=O)[C@@H]1CCCN1C(C)=O)[C@@H](C)CC)[C@@H](C)CC)C(C)C)C(N)=O`, on Proteinase K, the half-life at 50 µM turned out to be 3.97 h. Also, the concentration for half-maximal inhibition (IC50) is above 75 µM on Trypanothione reductase [1] and 22.3 µM at Trypanothione reductase [2]. Moreover, the outcome in the data set on Leishmania infantum [3] and in the data set with Leishmania infantum [4] was inactive.
`CCCC[C@H](NC(=O)C[C@H](CCCCN)NC(=O)[C@H](CCCC)NC(=O)C[C@H](CO)NC(=O)[C@@H](NC(=O)C[C@H](C)NC(=O)[C@@H](NC(=O)C[C@H](CO)NC(=O)C[C@H](CCC(N)=O)NC(=O)[C@@H](NC(=O)[C@@H](NC(=O)[C@H](CCCCN)NC(=O)CC[C@@H]1CCCN1C(C)=O)[C@@H](C)CC)[C@@H](C)CC)C(C)C)[C@@H](C)CC)C(N)=O` (Ac-[X1]KII[β3hQ][β3hS]V[β3hA]I[β3hS][Nle][β3hK][Nle]-NH2): on Proteinase K, the half-life at 50 µM was below 0.25 h. The half-maximal inhibitory concentration (IC50) on Trypanothione reductase [1] was 1.65 µM; at Trypanothione reductase [2], 12.8 µM. Moreover, the result with Leishmania infantum [3] and in the data set with Leishmania infantum [4] was inactive.
